A value given as a limit tells only on which side of the number the result lay.

The subject of the first assay is HBV. Put plainly: HBV-DNA antiviral assay using HepG2.117 cells (intracellular HBV DNA by qPCR). Type of assay: cell-based, HBV genotype D. The conditions noted are these: HBV DNA inhibition, 3 days incubation, read-out: EC50. In short, it runs like this:
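HepG2.117 cells (stably integrated genotype D HBV, Tet-off) seeded without doxycycline to induce pgRNA, then treated next day with 9 concentrations (4-fold dilutions, 2% DMSO) for 3 days at 37 °C. Intracellular HBV DNA quantified by qPCR against standard curve, viability by ATP content; inhibition relative to DMSO control, EC50/EC90/CC50 by non-linear regression.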
For `CC1Cn2c(c(C(=O)NCc3ccccc3-c3cc(N)ncn3)n(-c3ccc(OC4CC4)cc3)c2=O)CN1C(=O)c1ccc(Br)c(Cl)c1` (single isomer, unassigned) [Compound 8b, N-[[2-(6-aminopyrimidin-4-yl)phenyl]methyl]-7-(4-bromo-3-chloro-benzoyl)-2-[4-(cyclopropoxy)phenyl]-6-methyl-3-oxo-6,8-dihydro-5H-imidazo[1,5-a]pyrazine-1-carboxamide], the EC50 was less than 50 nM. Same read-out and setting: the figure for `CC1Cn2c(c(C(=O)NCc3ccccc3-c3ncccn3)n(-c3ccc(OC4CC4)cc3)c2=O)CN1C(=O)c1ccc(Br)c(C(F)(F)F)c1` (single isomer, unassigned) [Compound 59b] is less than 50 nM; for `Cc1cnn(-c2ccccc2CNC(=O)c2c3n(c(=O)n2-c2ccc(OC4CC4)cc2)CC(C)N(C(=O)c2ccc(Br)c(Cl)c2)C3)c1` (single isomer, unassigned) [Compound 6b, 7-(4-bromo-3-chloro-benzoyl)-2-[4-(cyclopropoxy)phenyl]-6-methyl-N-[[2-(4-methylpyrazol-1-yl)phenyl]methyl]-3-oxo-6,8-dihydro-5H-imidazo[1,5-a]pyrazine-1-carboxamide] it is less than 50 nM. With `CC1Cn2c(c(C(=O)NCc3ccccc3-c3ccncn3)n(-c3ccc(N4CCO[C@H](C)C4)cc3)c2=O)CN1C(=O)c1ccc(Br)c(Cl)c1` (stereo in doubt) [Compound 15b, (6S*)-7-(4-bromo-3-chloro-benzoyl)-6-methyl-2-[4-[(2R)-2-methylmorpholin-4-yl]phenyl]-3-oxo-N-[(2-pyrimidin-4-ylphenyl)methyl]-6,8-dihydro-5H-imidazo[1,5-a]pyrazine-1-carboxamide], the EC50 was less than 50 nM. Still for that read-out and setting: next, `Cc1nnc(-c2cccc(F)c2CNC(=O)c2c3n(c(=O)n2-c2ccc(OC4CC4)cc2)CC(C)N(C(=O)c2ccc(Br)c(C(F)(F)F)c2)C3)o1` (single isomer, unassigned) [Compound 33b]: less than 50 nM; `CC1Cn2c(c(C(=O)NCc3ccccc3-c3nccc(N)n3)n(-c3ccc(OC4CC4)cc3)c2=O)CN1C(=O)c1ccc(Br)c(Cl)c1` (single isomer, unassigned) [Compound 30b]: less than 50 nM. Still for that read-out and setting: the figure for `CC1Cn2c(c(C(=O)NCc3ccccc3-c3nnco3)n(-c3ccc(N4CC5(CN(C)C5)C4)cc3)c2=O)CN1C(=O)c1ccc(Br)c(C(F)(F)F)c1` (single isomer, unassigned) [Compound 112b] is 500 to 5000 nM; for `CC1Cn2c(c(C(=O)NCc3ccccc3-c3ccncn3)n(-c3ccc(N4CCC5(CC4)CN(C)C5)cc3)c2=O)CN1C(=O)c1ccc(Br)c(C(F)(F)F)c1` (single isomer, unassigned) [Compound 80b] it is 50 to 500 nM.

Still in this assay, the particulars now being: Hepatitis B virus, HepG2.117, 72 h, HBV DNA inhibition, 3 days incubation, read-out: EC50.
In the case of `C[C@H]1Cn2c(c(C(=O)NCc3ccccc3-c3ccncn3)n(-c3ccc(OC[C@@](C)(O)C(F)(F)F)cc3)c2=O)CN1C(=O)c1ccc(Br)c(C(F)(F)F)c1` (stereo in doubt) [Compound 82b, rac-(6S)-7-[4-bromo-3-(trifluoromethyl)benzoyl]-6-methyl-3-oxo-N-[(2-pyrimidin-4-ylphenyl)methyl]-2-[4-[rac-(2R)-3,3,3-trifluoro-2-hydroxy-2-methyl-propoxy]phenyl]-6,8-dihydro-SH-imidazo[1,5-a]pyrazine-1-carboxamide], the EC50 was less than 50 nM. Turning to `C[C@H]1Cn2c(c(C(=O)NCc3ccccc3-c3cccnn3)n(-c3ccc(OC[C@H](O)C(F)(F)F)cc3)c2=O)CN1C(=O)c1ccc(Br)c(C(F)(F)F)c1` (mixture of isomers) [Compound 67b, (6SR)-7-[4-bromo-3-(trifluoromethyl)benzoyl]-6-methyl-3-oxo-N-[(2-pyridazin-3-ylphenyl)methyl]-2-[4-[(2S)-3,3,3-trifluoro-2-hydroxy-propoxy]phenyl]-6,8-dihydro-5H-imidazo[1,5-a]pyrazine-1-carboxamide], the EC50 was less than 50 nM. Still for that read-out and setting: next, `C[C@@H]1CN(c2ccc(-n3c(C(=O)NCc4ccccc4)c4n(c3=O)CCN(C(=O)c3ccc(Br)c(Cl)c3)C4)cc2)CCN1C` [Compound 116, N-benzyl-7-(4-bromo-3-chloro-benzoyl)-3-oxo-2-[4-[(3R)-3,4-dimethylpiperazin-1-yl]phenyl]-6,8-dihydro-5H-imidazo[1,5-a]pyrazine-1-carboxamide]: 50 to 500 nM. As to `C[C@H](O)COc1ccc(-n2c(C(=O)NCc3ccccc3-c3cccnn3)c3n(c2=O)C[C@H](C)N(C(=O)c2ccc(Br)c(C(F)(F)F)c2)C3)cc1` (mixture of isomers) [Compound 57b, (6SR)-7-[4-bromo-3-(trifluoromethyl)benzoyl]-2-[4-[(2S)-2-hydroxypropoxy]phenyl]-6-methyl-3-oxo-N-[(2-pyridazin-3-ylphenyl)methyl]-6,8-dihydro-5H-imidazo[1,5-a]pyrazine-1-carboxamide], the EC50 fell in the range of 50 to 500 nM. Same read-out and setting: the figure for `CC1Cn2c(c(C(=O)NCc3ccccc3-c3ccnc(N)n3)n(-c3ccc(OC4CC4)cc3)c2=O)CN1C(=O)c1ccc(Br)c(Cl)c1` (single isomer, unassigned) [Compound 11a, N-[[2-(2-aminopyrimidin-4-yl)phenyl]methyl]-7-(4-bromo-3-chloro-benzoyl)-2-[4-(cyclopropoxy)phenyl]-6-methyl-3-oxo-6,8-dihydro-5H-imidazo[1,5-a]pyrazine-1-carboxamide] is less than 50 nM; for `Cc1nnc(-c2ccccc2CNC(=O)c2c3n(c(=O)n2-c2ccc(OC4CC4)cc2)CC(C)N(C(=O)c2ccc(Br)c(C(F)(F)F)c2)C3)o1` (single isomer, unassigned) [Compound 47a] it is less than 50 nM; for `C[C@@H]1Cn2c(c(C(=O)NCc3ccccc3-c3ccn(CC(F)(F)F)n3)n(-c3ccc4c(cnn4C[C@@H](C)O)c3)c2=O)CN1C(=O)c1ccc(Br)c(C(F)(F)F)c1` (mixture of isomers) [Compound 111a, (6RS)-7-[4-bromo-3-(trifluoromethyl)benzoyl]-2-[1-[(2R)-2-hydroxypropyl]indazol-5-yl]-6-methyl-3-oxo-N-[[2-[1-(2,2,2-trifluoroethyl)pyrazol-3-yl]phenyl]methyl]-6,8-dihydro-5H-imidazo[1,5-a]pyrazine-1-carboxamide] it is 50 to 500 nM. Regarding `CC1Cn2c(c(C(=O)NCc3ccccc3-c3ncccn3)n(-c3ccc(N4CC5(CN(C)C5)C4)cc3)c2=O)CN1C(=O)c1ccc(Br)c(C(F)(F)F)c1` (single isomer, unassigned) [Compound 78a], the EC50 was less than 50 nM. Turning to `Cc1nnc(-c2cccc(F)c2CNC(=O)c2c3n(c(=O)n2-c2ccc(OC4CC4)cc2)CC(C)N(C(=O)c2ccc(Br)c(Cl)c2)C3)o1` (single isomer, unassigned) [Compound 45a], the EC50 was 50 to 500 nM. Still for that read-out and setting: the figure for `CNc1ccnc(-c2ccccc2CNC(=O)c2c3n(c(=O)n2-c2ccc(OC4CC4)cc2)CC(C)N(C(=O)c2ccc(Br)c(Cl)c2)C3)n1` (single isomer, unassigned) [Compound 26a] is less than 50 nM.

Take `CC1Cn2c(c(C(=O)NCc3c(F)cccc3-c3nccc(N)n3)n(-c3ccc(OC4CC4)cc3)c2=O)CN1C(=O)c1ccc(Br)c(Cl)c1` (single isomer, unassigned) [Compound 31a]: the EC50 fell in the range of 50 to 500 nM. Still for that read-out and setting: the figure for `COc1nccc(-c2ccccc2CNC(=O)c2c3n(c(=O)n2-c2ccc(OC4CC4)cc2)CC(C)N(C(=O)c2ccc(Br)c(C(F)(F)F)c2)C3)n1` (single isomer, unassigned) [Compound 38a] is less than 50 nM; for `O=C(NCc1ccccc1)c1c2n(c(=O)n1-c1ccc(N3CC4CC[C@H]3CO4)cc1)CCN(C(=O)c1ccc(Br)c(Cl)c1)C2` (single isomer, unassigned) [Compound 125a] it is 50 to 500 nM.

For `C[C@H](O)Cn1ncc2cc(-n3c(C(=O)NCc4ccccc4-c4ncccn4)c4n(c3=O)C[C@H](C)N(C(=O)c3ccc(Br)c(C(F)(F)F)c3)C4)ccc21` (mixture of isomers) [Compound 94b, (6SR)-7-[4-bromo-3-(trifluoromethyl)benzoyl]-2-[1-[(2S)-2-hydroxypropyl]indazol-5-yl]-6-methyl-3-oxo-N-[(2-pyrimidin-2-ylphenyl)methyl]-6,8-dihydro-5H-imidazo[1,5-a]pyrazine-1-carboxamide], the EC50 lay within 50 to 500 nM.

With `CC1Cn2c(c(C(=O)NCc3ccccc3-c3ccncn3)n(-c3ccc(OC4CC4)cc3)c2=O)CN1C(=O)c1ccc(Br)c(C(F)F)c1` (single isomer, unassigned) [Compound 16a, 7-[4-bromo-3-(difluoromethyl)benzoyl]-2-[4-(cyclopropoxy)phenyl]-6-methyl-3-oxo-N-[(2-pyrimidin-4-ylphenyl)methyl]-6,8-dihydro-5H-imidazo[1,5-a]pyrazine-1-carboxamide], the EC50 fell in the range of 50 to 500 nM. Take `CC1Cn2c(c(C(=O)NCc3ccccc3-c3ccncn3)n(-c3ccc4oc(N)nc4c3)c2=O)CN1C(=O)c1ccc(Br)c(Cl)c1` (single isomer, unassigned) [Compound 92a]: the EC50 fell in the range of 500 to 5000 nM. Same read-out and setting: the figure for `C[C@H]1Cn2c(c(C(=O)NCc3ccccc3-c3ccncn3)n(-c3ccc(N4CCN(C)[C@H](C(F)(F)F)C4)cc3)c2=O)CN1C(=O)c1ccc(Br)c(C(F)(F)F)c1` (mixture of isomers) [Compound 87b, (6SR)-7-[4-bromo-3-(trifluoromethyl)benzoyl]-6-methyl-2-[4-[(3S)-4-methyl-3-(trifluoromethyl)piperazin-1-yl]phenyl]-3-oxo-N-[(2-pyrimidin-4-ylphenyl)methyl]-6,8-dihydro-5H-imidazo[1,5-a]pyrazine-1-carboxamide] is less than 50 nM. Still for that read-out and setting: the figure for `C[C@H](O)COc1ccc(-n2c(C(=O)NCc3ccccc3-c3ccncn3)c3n(c2=O)C[C@@H](C)N(C(=O)c2ccc(Br)c(C(F)(F)F)c2)C3)cc1` (mixture of isomers) [Compound 58a, (6RS)-7-[4-bromo-3-(trifluoromethyl)benzoyl]-2-[4-[(2S)-2-hydroxypropoxy]phenyl]-6-methyl-3-oxo-N-[(2-pyrimidin-4-ylphenyl)methyl]-6,8-dihydro-5H-imidazo[1,5-a]pyrazine-1-carboxamide] is 50 to 500 nM.

Source of the values: patent US11845752B2, “Substituted imidazo[1,5-a]pyrazines for the treatment of hepatitis B” (ALIGOS THERAPEUTICS, INC., priority 2020, dated 2023).
